The structures appear in SMILES notation. Where only a bound is given, the exact number is not on record here.

The target in one assay is T1, ERK1 (Homo sapiens, UniProt P27361).
T1 construct: purchased Jubilant Biosys
The assay is described as follows: ERK1 HTRF (biochemical) assay. How it is done: ERK1 and ERK2 HTRF (Biochemical) Assays
These assays employed a homogeneous time resolved fluorescence (HTRF) technique. […] The plate was incubated at room temperature for 60 min with shaking. […] The IC50 values (half maximal inhibitory concentration values) were subsequently determined using a sigmoidal dose-response curve (variable slope) in GraphPad Prism® 5 software.

A further assay has as its target T2, ERK2 (Homo sapiens, UniProt P28482).
T2 construct: purchased Jubilant Biosys
Put plainly: ERK2 HTRF (biochemical) assay. In a few lines: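 Compounds were tested as half-log dilutions from 0.0005 to 10 uM in Tris pH 7.5/MgCl2 buffer, with a substrate mix of 1 uM biotin-MBP peptide and 24 uM ATP and an enzyme mix of 25 nM ERK2. Reaction ran 60 min at room temperature. Phospho-MBP was detected by HTRF (Eu-anti-phospho-MBP/SA-APC, 665/620 nm), and IC50 was fitted with a variable-slope sigmoidal curve.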
For orientation: TR-FRET usually uses a lanthanide donor and a delayed reading to cut background.

T2 sequence (P28482 whole entry): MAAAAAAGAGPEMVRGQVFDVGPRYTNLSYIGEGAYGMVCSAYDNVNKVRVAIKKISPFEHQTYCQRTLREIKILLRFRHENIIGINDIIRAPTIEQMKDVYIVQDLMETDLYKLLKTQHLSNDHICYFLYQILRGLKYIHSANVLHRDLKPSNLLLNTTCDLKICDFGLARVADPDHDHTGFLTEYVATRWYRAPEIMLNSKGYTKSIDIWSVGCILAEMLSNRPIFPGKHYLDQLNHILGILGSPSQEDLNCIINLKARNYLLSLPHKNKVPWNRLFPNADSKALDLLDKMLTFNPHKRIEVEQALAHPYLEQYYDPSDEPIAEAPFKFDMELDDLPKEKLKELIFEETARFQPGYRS
T1 sequence (P27361 whole entry): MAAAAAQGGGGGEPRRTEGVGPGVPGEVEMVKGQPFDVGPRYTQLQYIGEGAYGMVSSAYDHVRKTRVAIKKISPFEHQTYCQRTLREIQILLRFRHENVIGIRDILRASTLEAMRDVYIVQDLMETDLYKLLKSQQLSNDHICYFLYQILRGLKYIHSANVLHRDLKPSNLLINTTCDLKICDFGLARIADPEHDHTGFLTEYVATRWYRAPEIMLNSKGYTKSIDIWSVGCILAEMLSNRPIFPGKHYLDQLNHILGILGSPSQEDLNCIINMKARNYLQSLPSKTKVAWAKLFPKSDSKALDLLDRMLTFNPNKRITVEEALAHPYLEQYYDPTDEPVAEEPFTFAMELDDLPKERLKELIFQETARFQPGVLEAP

For orientation: IC50 means the concentration needed to halve the response being measured. Read a high IC50 as lower potency. For `CCC(=O)OCc1c(Cl)cccc1CNC(=O)c1cn(-c2nc(NC3CCOCC3)ncc2C)cn1` [Example 348, 2-chloro-6-((1-(5-methyl-2-((tetrahydro-2H-pyran-4-yl)amino)-pyrimidin-4-yl)-1H-imidazole-4-carboxamido)-methyl)benzyl-propionate], the IC50 at ERK1 (HTRF biochemical assay) is under 50 nM; on ERK2 (HTRF biochemical assay) it was at most 50 nM.

As for `Cc1cnc(Nc2ccc3c(c2)OCO3)nc1-n1cnc(C(=O)N[C@H](CO)c2cccc(Cl)c2)c1` [Compound 48, (S)-1-(2-(benzo[d][1,3]dioxol-5-ylamino)-5-methylpyrimidin-4-yl)-N-(1-(3-chloro-phenyl)-2-hydroxy-ethyl)-1H-imidazole-4-carboxamide], the IC50 was under 50 nM at ERK1 (HTRF) and at most 50 nM at ERK2 (HTRF).

Consider `Cc1cnc(Nc2ccc(F)cc2Cl)nc1-n1ccc(C(=O)NC(CO)c2cccc(Cl)c2)c1` (stereo not shown) [Compound 31, 1-(2-((2-chloro-4-fluorophenyl)amino)-5-methyl-pyrimidin-4-yl)-N-(1-(3-chlorophenyl)-2-hydroxyethyl)-1H-pyrrole-3-carboxamide], for which the IC50 against ERK1 (HTRF) is under 50 nM; at ERK2 (HTRF) it was at most 50 nM.

Consider `CC[C@@H](CO)Nc1cc(-n2ccc(C(=O)NC(CO)c3ccccc3)c2)c(C)cn1` (stereo partly drawn) [Compound 100, N-(2-hydroxy-1-phenylethyl)-1-(2-(((S)-1-hydroxy-butan-2-yl)amino)-5-methylpyridin-4-yl)-1H-pyrrole-3-carboxamide], for which the IC50 was 50 to 100 nM on ERK1 (HTRF) and at most 50 nM against ERK2 (HTRF).

For the compound `CC[C@H](CO)Nc1cc(-n2cnc(C(=O)NC(CO)c3cccc(Cl)c3)c2)c(Cl)cn1` (stereo partly drawn) [Compound 168, 1-(5-chloro-2-(((R)-1-hydroxybutan-2-yl)amino)pyridin-4-yl)-N-(1-(3-chlorophenyl)-2-hydroxyethyl)-1H-imidazole-4-carboxamide], the IC50 was under 50 nM against ERK1 (HTRF) and 50 to 100 nM on ERK2 (HTRF).

With `Cc1cnc(NC2CCOCC2)nc1-n1cnc(C(=O)NC(CN)c2ccc(Cl)s2)c1` (stereo not shown) [Example 274, N-(2-amino-1-(5-chlorothiophen-2-yl)ethyl)-1-(5-methyl-2-((tetrahydro-2H-pyran-4-yl)amino)-pyrimidin-4-yl)-1H-imidazole-4-carboxamide], the IC50 on ERK1 (HTRF) was under 50 nM; at ERK2 (HTRF), at most 50 nM.

With `Cc1cnc(NC2CCC(F)(F)CC2)nc1-n1cnc(C(=O)N[C@H](CN)c2cccc(Cl)c2)c1` [Example 286, (S)-N-(2-amino-1-(3-chlorophenyl)-ethyl)-1-(2-((4,4-difluorocyclo-hexyl)amino)-5-methylpyrmidin-4-yl)-1H-imidazole-4-carboxamide], the figures for the IC50 at ERK1 (HTRF) and against ERK2 (HTRF) were under 50 nM and at most 50 nM, respectively.

Regarding `Cc1cc(Nc2ncc(C)c(-n3ccc(C(=O)NC(CO)c4cccc(Cl)c4)c3)n2)ccc1C1CCNCC1` (stereo not shown) [Compound 182, N-(1-(3-chloro-phenyl)-2-hydroxyethyl)-1-(5-methyl-2-((3-methyl-4-(piperidin-4-yl)phenyl)-amino)pyrimidin-4-yl)-1H-pyrrole-3-carboxamide], the IC50 was under 50 nM on ERK1 (HTRF) and at most 50 nM against ERK2 (HTRF).

On to `Cc1cnc(Nc2ccc3c(c2)CCCO3)nc1-n1ccc(C(=O)NC(CO)c2ccccc2)c1` (stereo not shown) [Compound 173, 1-(2-(chroman-6-ylamino)-5-methyl-pyrimidin-4-yl)-N-(2-hydroxy-1-phenylethyl)-1H-pyrrole-3-carboxamide], for which the results for the IC50 against ERK1 (HTRF) and against ERK2 (HTRF) were under 50 nM and at most 50 nM, respectively.

In the case of `Cc1cnc(Nc2ccc3c(c2)OCO3)nc1-n1ccc(C(=O)N[C@H](CO)c2ccc(F)c(Cl)c2)c1` [Compound 87], the IC50 at ERK1 (HTRF) is under 50 nM; on ERK2 (HTRF) it was at most 50 nM.

Turning to `O=C(NC(CO)c1ccccc1)c1ccn(-c2nc(Nc3ccccc3Cl)ncc2F)c1` (stereo not shown) [Compound 67, 1-(2-((2-chloro-phenyl)amino)-5-fluoropyrimidin-4-yl)-N-(2-hydroxy-1-phenylethyl)-1H-pyrrole-3-carboxamide], the concentration for half-maximal inhibition (IC50) on ERK1 (HTRF) was under 50 nM; on ERK2 (HTRF), at most 50 nM.

In the case of `Cc1cnc(NC2CCOCC2)nc1-n1cnc(C(=O)NCc2sccc2CN)c1` [Example 294, N-((3-(amino-methyl)thiophen-2-yl)methyl)-1-(5-methyl-2-((tetrahydro-2H-pyran-4-yl)amino)-pyrimidin-4-yl)-1H-imidazole-4-carboxamide], the IC50 against ERK1 (HTRF) was under 50 nM; against ERK2 (HTRF) it was at most 50 nM.

Turning to `NCC(NC(=O)c1cn(-c2ccnc(Nc3ccc(F)cc3)c2)cn1)c1ccccc1` (stereo not shown) [Compound 221, N-(2-amino-1-phenylethyl)-1-(2-((4-fluorophenyl)-amino)pyridin-4-yl)-1H-imidazole-4-carboxamide], the IC50 against ERK1 (HTRF) is under 50 nM; on ERK2 (HTRF), at most 50 nM.

Consider `Cc1cnc(Nc2ccc3c(c2)OCO3)nc1-n1cnc(C(=O)NC(CN)c2cc(F)cc(Cl)c2)c1` (stereo not shown) [Example 269, N-(2-amino-1-(3-chloro-5-fluorophenyl)ethyl)-1-(2-(benzo[d][1,3]dioxol-5-ylamino)-5-methylpyrimidin-4-yl)-1H-imidazole-4-carboxamide], for which the results for the IC50 against ERK1 (HTRF) and against ERK2 (HTRF) were under 50 nM and at most 50 nM, respectively.

`CC(C)C[C@H](CO)Nc1nccc(-n2cc(NC(=O)N[C@H](CO)c3cccc(Cl)c3)cn2)n1` [Compound 13, 1-((S)-1-(3-chlorophenyl)-2-hydroxyethyl)-3-(1-(2-(((R)-1-hydroxy-4-methylpentan-2-yl)amino)pyrimidin-4-yl)-1H-pyrazol-4-yl)urea]: the IC50 against ERK1 (HTRF) and on ERK2 (HTRF) was 100 to 500 nM each time.

`Cc1cnc(N[C@H]2CCOC2)nc1-n1cnc(C(=O)NCc2ccc(Cl)c(Cl)c2)c1` [Example 314, (S)-N-(3,4-dichlorobenzyl)-1-(5-methyl-2-((tetrahydrofuran-3-yl)amino)pyrimidin-4-yl)-1H-imidazole-4-carboxamide]: the IC50 against ERK1 (HTRF biochemical assay) is under 50 nM; on ERK2 (HTRF biochemical assay) it was at most 50 nM.

As for `Cc1cnc(Nc2ccc3c(c2)OC(C)(C)O3)nc1-n1ccc(C(=O)NC(CO)c2cccc(Cl)c2)c1` (stereo not shown) [Compound 96, N-(1-(3-chloro-phenyl)-2-hydroxyethyl)-1-(2-((2,2-dimethyl-benzo[d][1,3]dioxol-5-yl)amino)-5-methylpyrimidin-4-yl)-1H-pyrrole-3-carboxamide], the IC50 against ERK1 (HTRF) was under 50 nM; at ERK2 (HTRF) it was at most 50 nM.

Regarding `Cc1cnc(NC2CCOCC2)nc1-n1cnc(C(=O)NCc2ccccc2C(C)(C)O)c1` [Example 293, N-(2-(2-hydroxy-propan-2-yl)benzyl)-1-(5-methyl-2-((tetrahydro-2H-pyran-4-yl)amino)-pyrimidin-4-yl)-1H-imidazole-4-carboxamide], the results for the IC50 against ERK1 (HTRF) and on ERK2 (HTRF) were under 50 nM and at most 50 nM, respectively.

On to `Cc1cnc(Nc2ccc(F)cc2)cc1-n1cnc(C(=O)NC(CN)c2ccc(F)cc2)c1` (stereo not shown) [Compound 230, N-(2-amino-1-(4-fluorophenyl)ethyl)-1-(2-((4-fluoro-phenyl)amino)-5-methylpyridin-4-yl)-1H-imidazole-4-carboxamide], for which the IC50 against ERK1 (HTRF) was under 50 nM; against ERK2 (HTRF) it was at most 50 nM.

On to `COc1cc(Nc2ncc(C)c(-n3ccc(C(=O)NC(CO)c4ccccc4)c3)n2)cc(OC)c1OC` (stereo not shown) [Compound 121, N-(2-hydroxy-1-phenylethyl)-1-(5-methyl-2-((3,4,5-trimethoxyphenyl)amino)pyrimidin-4-yl)-1H-pyrrole-3-carboxamide], for which the IC50 against ERK1 (HTRF) is under 50 nM; against ERK2 (HTRF), at most 50 nM.

`Cc1cnc(Nc2ccc(F)cc2)cc1-n1cnc(C(=O)NC(CN)c2ccccc2)c1` (single isomer, unassigned) [Compound 228, N-(2-amino-1-phenylethyl)-1-(2-((4-fluorophenyl)-amino)-5-methyl-pyridin-4-yl)-1H-imidazole-4-carboxamide]: the IC50 against ERK1 (HTRF) and against ERK2 (HTRF) was 100 to 500 nM each time.

In the case of `Cc1cnc(Nc2ccc3c(c2)OCO3)nc1-n1ccc(C(=O)N[C@H](CO)Cc2ccccc2)c1` [Compound 59, (S)-1-(2-(benzo[d][1,3]dioxol-5-ylamino)-5-methylpyrimidin-4-yl)-N-(1-hydroxy-3-phenylpropan-2-yl)-1H-pyrrole-3-carboxamide], the values for the IC50 on ERK1 (HTRF) and against ERK2 (HTRF) were 50 to 100 nM and at most 50 nM, respectively.

Regarding `Cc1cnc(N[C@@H]2CCOC2)nc1-n1ccc(C(=O)N[C@H](CO)c2cccc(Cl)c2)c1` [Compound 162, N-((S)-1-(3-chlorophenyl)-2-hydroxyethyl)-1-(5-methyl-2-(((R)-tetrahydrofuran-3-yl)amino)pyrimidin-4-yl)-1H-pyrrole-3-carboxamide], the IC50 on ERK1 (HTRF) was under 50 nM; against ERK2 (HTRF), at most 50 nM.

Regarding `Cc1cnc(Nc2ccc3occc3c2)cc1-n1ccc(C(=O)NC(CO)c2ccccc2)c1` (stereo not shown) [Compound 79, 1-(2-(benzofuran-5-ylamino)-5-methylpyridin-4-yl)-N-(2-hydroxy-1-phenylethyl)-1H-pyrrole-3-carboxamide], the results for the IC50 against ERK1 (HTRF) and against ERK2 (HTRF) were 100 to 500 nM and at most 50 nM, respectively.

For the compound `COc1ccc(Nc2ncc(C)c(-n3ccc(C(=O)NC(CO)c4ccccc4)c3)n2)cc1OCCN1CCN(C)CC1` (stereo not shown) [Compound 148, N-(2-hydroxy-1-phenylethyl)-1-(2-((4-methoxy-3-(2-(4-methylpiperazin-1-yl)ethoxy)-phenyl)amino)-5-methylpyrimidin-4-yl)-1H-pyrrole-3-carboxamide], the IC50 on ERK1 (HTRF) is under 50 nM; on ERK2 (HTRF) it was at most 50 nM.

Regarding `Cc1cnc(Nc2ccnn2C)nc1-n1cnc(C(=O)N[C@H](CN)c2cccc(Cl)c2)c1` [Example 280, (S)-N-(2-amino-1-(3-chlorophenyl)-ethyl)-1-(5-methyl-2-((1-methyl-1H-pyrazol-5-yl)amino)-pyrimidin-4-yl)-1H-imidazole-4-carboxamide], the IC50 at ERK1 (HTRF) is under 50 nM; on ERK2 (HTRF), at most 50 nM.

The values above are taken from patent publication US9896445B2, “Heterocyclic inhibitors of ERK1 and ERK2 and their use in the treatment of cancer” (Asana Biosciences, LLC, priority 2015, dated 2018).
